Assay results from US20030215899A1, “Reversible oxidation of protein tyrosine phosphatases” (CEPTYR, Inc., priority 2002, published 2003).
“Also recorded” adds a separate entry of the source.

How the values were obtained:
70 kDa PTP (SHP-2) = target: T1, 70 kDa PTP (SHP-2) (Rattus norvegicus, UniProt P41499); assay: modified in-gel PTP assay, growth factor stimulated Rat-1 cells; format: cell-based
T1 construct: endogenous in cells; host or cells: Rat-1 fibroblasts
T1 sequence (P41499 1-593): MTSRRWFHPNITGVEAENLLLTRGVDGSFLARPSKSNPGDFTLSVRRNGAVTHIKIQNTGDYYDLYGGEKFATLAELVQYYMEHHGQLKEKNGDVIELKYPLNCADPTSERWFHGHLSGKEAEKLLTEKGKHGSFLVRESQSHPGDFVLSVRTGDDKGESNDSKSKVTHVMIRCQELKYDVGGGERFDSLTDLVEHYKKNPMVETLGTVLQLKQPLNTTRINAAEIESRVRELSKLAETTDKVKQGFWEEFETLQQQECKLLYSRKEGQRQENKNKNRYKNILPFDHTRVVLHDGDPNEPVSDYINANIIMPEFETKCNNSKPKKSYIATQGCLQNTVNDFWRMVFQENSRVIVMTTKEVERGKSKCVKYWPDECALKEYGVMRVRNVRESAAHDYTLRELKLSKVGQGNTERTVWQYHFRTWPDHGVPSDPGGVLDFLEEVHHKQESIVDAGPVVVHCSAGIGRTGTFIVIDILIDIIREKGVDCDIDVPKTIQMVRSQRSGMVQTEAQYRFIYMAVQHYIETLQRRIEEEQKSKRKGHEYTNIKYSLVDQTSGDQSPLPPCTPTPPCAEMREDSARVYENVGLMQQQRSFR
Text: (§1) To determine whether ROS stimulated intracellular tyrosine phosphorylation through the oxidation and inhibition of cellular PTPs, a modified in-gel PTP activity assay was devised, as follows: As substrate, poly (4:1) Glu-Tyr (Sigma) was labeled with [γ-^32P]-ATP using the GST-FER fusion PTK, as described previously (Shen et al., 1998 J. Biol. Chem. 273:6474-81). The labeled substrates were used within three weeks to limit the variation of its specific activity from experiment to experiment. The lysis buffer (25 mM CH3COONa, 1% NP-40, 150 mM NaCl, 10% glycerol, pH 5.5) was degassed at 4° C. for overnight, before catalase and superoxide dismutase (both 100 μg/ml), protease inhibitors and 10 mM iodoacetic acid (IAA) were added. Following stimulation, cells were lysed under anaerobic conditions in an argon chamber. Lysates (25 μg) were processed as described herein and an “in-gel” phosphatase assay (Burridge and Nelson, 1995) was conducted using SDS-PAGE gels containing a radioactively-labeled substrate (1.5×10^6 cpm/20 ml gel solution, approximately 2 μM p-Tyr).
(§2) Cells were triggered with the appropriate stimulus and harvested under anaerobic conditions in lysis buffer containing IAA. Those PTPs that had not encountered ROS in the cell became irreversibly inactivated by alkylation of their active site Cys with IAA. However, in contrast, any PTPs in which the active site Cys had been oxidized in response to the stimulus were resistant to alkylation. For the “in-gel” phosphatase assay, a 10% SDS-PAGE gel was cast containing a radioactively-labeled substrate. An aliquot of cell lysate was subjected to SDS-PAGE and proteins in the gel were sequentially denatured, then renatured in the presence of reducing reagents. […] The reaction was then terminated by fixing, staining and destaining the gel. Finally the gel was dried and exposed to film. The presence of a PTP was visualized by substrate dephosphorylation, as the appearance of a clear, white area on the black background of labeled substrate.
As described above, treatment of Rat-1 cells with H2O2 led to inactivation of multiple PTPs (FIGS. 2-3). […] Lysates of PDGF-stimulated Rat-1 cells were then analyzed using the modified in-gel PTP activity assay described above. […] Serum-starved Rat-1 cells were exposed to 50 ng/ml PDGF-BB for the times indicated (FIG. 4A). Lysates were prepared in the presence of 10 mM IAA and subjected to the in-gel PTP assay. […] The result shown is representative of four independent experiments. Oxidation of this 70 kDa PTP was reversible, reaching a maximum at 5 minutes, followed by marked reduction, almost to basal levels, within 20 minutes of PDGF treatment (FIG. 4A).
Rat-1 cells, either untreated (−) or stimulated with 50 ng/ml PDGF (+), were harvested in lysis buffer containing 10 mM IAA.

PTPs in Rat-1 cells = assay: modified in-gel PTP activity assay of Rat-1 cell lysates; format: cell-based; conditions: for inactivation (oxidation) of PTPs in cells: 200 μM
Text: as §1, §2

PDGFR = PDGFR immunoprecipitation (Ab-X) and anti-pTyr immunoblot; format: cell-based, Rat; conditions: 30 mM NAC 40 minutes before PDGF 50 ng/ml
Description: (§3) For immunoprecipitation, cells were rinsed with ice-cold PBS, then lysed in ice-cold 20 mM Hepes (pH 7.5), 1% NP-40, 150 mM NaCl, 10% glycerol, 200 μM […] and protease inhibitors (25 μg/ml of aprotinin and leupeptin). […] The anti-pTyr antibody G104 was described previously (Garton et al., 1997 Oncogene 15, 877-885). Anti-PDGFRββ antibody (Ab-X) was a gift from Dr. Daniel DiMaio at Yale University (Irusta and DiMaio, 1998 EMBO J. 17, 6912-6923). Anti-human G-CSF receptor (G-CSFR) antibody was provided by Dr. Toshio Hirano at Osaka University, Japan (Fukada et al., 1996 Immunity 5, 449-460). Lysate (400 μg) was incubated with 5 μg of antibody conjugated to protein A/G-Sepharose (Amersham Pharmacia, Arlington Heights, Ill.) for 2 hours at 4° C. For immunoblotting, aliquots of total lysates (30 μg per sample) or immunoprecipitates were subjected to SDS-PAGE and transferred to nitrocellulose filters, which were incubated with appropriate primary and secondary antibodies and the specific signals were visualized by the ECL detection system (Amersham Pharmacia).
A possible role of oxidation/inactivation of the 70 k PTP in regulating PDGFR-mediated signaling was next investigated by testing the effects of the antioxidant NAC. Cells were incubated for 40 minutes in the presence or absence of 30 mM NAC prior to PDGF stimulation. Excess NAC was removed prior to addition of PDGF (50 ng/ml). […]

MAPK = assay: anti-phospho-MAPK / anti-MAPK immunoblot; format: cell-based, Rat; conditions: for activation of MAPKs (mitogenic signaling): 200 μM
Description: as §3

SHP-2 (E76A mutant) = SHP-2 (E76A mutant) (Homo sapiens, UniProt Q06124, E76A); format: biochemical; conditions: for protection of SHP-2 from alkylation by IAA: 37° C. 5 mins, then 4 mM IAA
[1] = system: tyrosine phosphorylation of cellular proteins in Rat-1 cells; assay: immunoprecipitation (PT-66) and anti-pTyr (G104) immunoblot of tyrosine phosphorylated proteins; format: cell-based
Description: as §3

[2] = system: intracellular ROS in Rat-1 cells; assay: ROS-induced DCF fluorescence (microscopy, flow cytometry); format: cell-based; conditions: for DCF fluorescence by fluorescence microscopy: 20 μM H2DCFDA preload, 200 μM, 5 mins; for shift of DCF fluorescence by flow cytometry, H2O2 versus t-BHP: 200 μM each
Description: The effects of H2O2 and t-BHP on inactivation of PTPs and activation of MAPK signaling pathways were next compared in a cellular context. Intracellular ROS were measured using 2′,7′-dichlorofluorescein diacetate (H2DCFDA) and 5-(and-6)-chloromethyl-2′,7′-dichlorodihydrofluorescein diacetate (CM-H2DCFDA) (all fluorescent ROS indicators from Molecular Probes, Eugene, Oreg.) either by fluorescence microscopy, using a Zeiss Axiovert 405M inverted microscope equipped with a fluorescence attachment and digital camera, or by cell sorting, using a FACSCalibur System ([…].), according to the manufacturer's recommendations. Rat-1 cells were pre-loaded with 20 μM H2DCFDA in the dark for 20 mins, then exposed to H2O2 and t-BHP (both 200 μM) for 5 mins. Images of ROS-induced DCF fluorescence are shown at magnification 400× (FIG. 3B upper panel). Cells (1×10^5) that underwent the same treatment as above were harvested and resuspended in Hanks' solution, then immediately subjected to flow cytometric analysis to measure ROS-induced DCF fluorescence. The basal peak indicates background fluorescence, whereas the rightward shifted peak indicates ROS-induced DCF fluorescence (FIG. 3B, lower panels). […] Cells were exposed to H2O2 and t-BHP (each at 200 μM) for the indicated times, lysed in the presence of 10 mM IAA and oxidized PTPs were visualized in the in-gel PTP activity assay.
Rat-1 cells were incubated with 20 μM CM-H2DCFDA in the dark for 20 mins, then exposed to peptide growth factors (50 ng/ml) for an additional 10 mins. Images of ROS-induced DCF fluorescence are shown at 50× magnification. (FIG. 6A) The data are representative of 4 independent experiments. In FIG. 6B, Rat-1 cells were exposed to peptide growth factors for the indicated times, lysed in the presence of 10 mM IAA, and oxidized PTPs were visualized by the in-gel PTP assay. […] Aliquots of cell lysate from each treatment group were immunoblotted with anti-phospho-MAPK Ab and re-probed with anti-MAPK Ab.

PDGFR/SHP-2 complex = assay: recruitment of SHP-2 into a complex with the PDGFR; format: cell-based; conditions: ligand stimulation in Rat-1 cells, preliminary studies
Description: as §3
Serum-starved Rat-1 cells were exposed to PDGF (50 ng/ml) for the indicated times (FIG. 5A). The PDGFR and associated proteins were immunoprecipitated with antibody Ab-X, and pTyr proteins visualized by immunoblotting with anti-pTyr Ab G104 (FIG. 5A, upper panel). […]

[3] = 30 mM NAC 40 minutes before PDGF 50 ng/ml
[4] = PDGF-treated Rat-1 cells, preliminary experiments

Compound: CC(=O)N[C@@H](CS)C(=O)O [NAC, N-acetyl cysteine]
- effect on PDGF-induced oxidation of the 70 k PTP (70 kDa PTP (SHP-2); [3]): markedly attenuated; also recorded: impaired
- effect on H2O2-induced PTP oxidation and inactivation (PTPs in Rat-1 cells; 30 mM NAC preincubation 40 minutes, then 200 μM H2O2): blocked PTP oxidation and inactivation
- effect on ligand-induced tyrosine phosphorylation of the PDGFR (PDGFR): greatly diminished
- effect on PDGF-induced activation of MAPKs (MAPK; [3]): completely eliminated

Compound: CC(C)(C)OO [t-BHP, t-butyl hydroperoxide]
- protection of SHP-2 from alkylation by IAA (SHP-2 (E76A mutant)): did not protect the invariant Cys residue of SHP-2 from alkylation
- oxidation and inactivation of SHP-2 in vitro (SHP-2 (E76A mutant); purified SHP-2 (E76A)): unable to oxidize and inactivate SHP-2
- inactivation (oxidation) of PTPs in cells (PTPs in Rat-1 cells; lysis with 10 mM IAA): not in response to t-BHP
- tyrosine phosphorylation of cellular proteins ([1]; 200 μM): less pronounced effects on tyrosine phosphorylation
- DCF fluorescence by fluorescence microscopy [2]: led to rapid oxidation and the appearance of the fluorescent derivative, DCF
- shift of DCF fluorescence by flow cytometry, H2O2 versus t-BHP [2]: no quantitative difference was observed
- activation of MAPKs (mitogenic signaling) (MAPK): unable to activate MAPKs

Compound: CCCCS(=N)(=O)CCC(N)C(=O)O [BSO, L-buthionine-SR-sulfoximine]
- effect on recovery of PTP activity following removal of H2O2 (PTPs in Rat-1 cells; 2.5 mM BSO 16 h, 200 μM H2O2 for 2 minutes then removed): markedly attenuated the recovery of PTP activity
- persistence of PTP oxidation after removal of H2O2 (PTPs in Rat-1 cells; BSO-pretreated Rat-1 cells): ≥ 30 min

Compound: PDGF: peptide growth factor
- fraction of total SHP-2 recruited into a complex with the PDGFR (PDGFR/SHP-2 complex): ~10%
- time of maximum oxidation of 70 kDa PTP (70 kDa PTP (SHP-2); 50 ng/ml PDGF-BB): 5 min
- time to reduction of 70 kDa PTP almost to basal levels (70 kDa PTP (SHP-2); 50 ng/ml PDGF-BB): ≤ 20 min
- oxidation of ~70 kDa PTP (70 kDa PTP (SHP-2); 50 ng/ml PDGF-BB, serum-starved Rat-1 cells): rapid and transient oxidation; also recorded: transiently oxidized
- oxidation and inhibition of SHP-2 (70 kDa PTP (SHP-2); peptide growth factors, lysis with 10 mM IAA): oxidation and inhibition of SHP-2 was observed; also recorded: induced
- tyrosine phosphorylation of cellular proteins [1, 4]: rapid increase in the tyrosine phosphorylation of cellular proteins
- production of intracellular ROS ([2]; 20 μM CM-H2DCFDA, growth factor 50 ng/ml, 10 mins): triggered production of intracellular ROS
- phosphorylation of MAPKs (MAPK; [4]): enhanced phosphorylation of MAPKs
- activation of MAPK (MAPK; peptide growth factors, Rat-1 cells): activated MAPK to a similar extent

Compound: OO [H2O2, hydrogen peroxide]
- irreversible oxidation of SHP-2 (SHP-2 (E76A mutant); 2 mM H2O2): not irreversibly oxidized
- protection of SHP-2 from alkylation by IAA (SHP-2 (E76A mutant)): protected SHP-2 from alkylation
- time to essentially complete recovery (reduction) of PTPs after removal of H2O2 (PTPs in Rat-1 cells; 200 μM H2O2 for 2 minutes, no BSO): 10 to 20 min
- inactivation (oxidation) of PTPs in cells (PTPs in Rat-1 cells; lysis with 10 mM IAA): reproducible inactivation of PTPs was detected
- H2O2 concentration sufficient to oxidize all PTPs detectable in the assay (PTPs in Rat-1 cells; 1 min exposure, serum-deprived Rat-1 cells): 200 µM
- time to oxidation of active site Cys of various PTPs (PTPs in Rat-1 cells; H2O2 added to culture media, lysis with 10 mM IAA): ≤ 1 min
- tyrosine phosphorylation of cellular proteins ([1]; 200 μM): enhanced tyrosine phosphorylation
- tyrosine phosphorylation of proteins of 120 kDa and 70 kDa ([1]; various concentrations of H2O2): induced in a dose-dependent fashion
- DCF fluorescence by fluorescence microscopy [2]: led to rapid oxidation and the appearance of the fluorescent derivative, DCF
- shift of DCF fluorescence by flow cytometry, H2O2 versus t-BHP [2]: no quantitative difference was observed
- activation of MAPKs (mitogenic signaling) (MAPK): enhanced tyrosine phosphorylation and mitogenic signaling
- phosphorylation of ERK MAP kinases (MAPK; H2O2-treated Rat-1 cells): triggered the phosphorylation of ERK MAP kinases
